Measured values: PMC9841532, “Exploring the Effect of Halogenation in a Series of Potent and Selective A2B Adenosine Receptor Antagonists” (Journal of Medicinal Chemistry, 2022)

Assays:
A2BAR [1] = molecular target: T1, A2BAR (Homo sapiens, UniProt P29275); assay: cAMP accumulation assay in HEK-293 cells permanently expressing A2BAR-SNAP; format: cell-based; conditions: read-out: KB (hA2B)
T1 construct: expressed in transfected cells; host or cells: HEK-293 T cells permanently expressing pRK5-A2BAR^SNAP
T1 sequence (P29275 1-332): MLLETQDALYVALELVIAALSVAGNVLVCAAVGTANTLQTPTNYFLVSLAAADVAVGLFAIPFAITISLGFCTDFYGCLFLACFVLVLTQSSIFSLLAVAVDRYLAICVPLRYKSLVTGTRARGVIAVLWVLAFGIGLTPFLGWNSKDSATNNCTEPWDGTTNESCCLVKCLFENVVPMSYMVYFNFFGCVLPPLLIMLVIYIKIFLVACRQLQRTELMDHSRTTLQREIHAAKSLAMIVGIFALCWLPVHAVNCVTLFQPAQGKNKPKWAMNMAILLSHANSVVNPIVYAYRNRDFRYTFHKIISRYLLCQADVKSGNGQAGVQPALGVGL
Protocol: To assess their ability to block A2BAR agonist intrinsic activity, the effect on A2BAR-mediated cAMP accumulation and cellular impedance was evaluated. To this end, we used HEK-293 cells permanently expressing the A2BAR^SNAP construct, which can be visualized upon staining the cells with a SNAP-fluorescent substrate.
Scale bar: […]. […] Data are expressed as mean ± SEM (n = 4).
cAMP accumulation was measured using the LANCE Ultra cAMP kit (PerkinElmer, Waltham, Massachusetts, USA) as previously described.[55] […] The 384-well plate was incubated 1 h at 22 °C in the dark and was then read on a CLARIOstar Microplate Reader (BMG Labtech, Durham, North Carolina, USA). […] Data were fitted by non-linear regression using GraphPad Prism 9 (San Diego, California, USA).

hA3AR = molecular target: T2, hA3AR (Homo sapiens, UniProt P0DMS8); assay: Radioligand binding competition, [3H]NECA, membranes from HeLa-A3 cells; conditions: 1 μM, [3H]NECA, human HeLa cells, n = 2
T2 construct: expressed in transfected cells; host or cells: HeLa (HeLa-A3) cell membranes
T2 sequence (P0DMS8 1-318): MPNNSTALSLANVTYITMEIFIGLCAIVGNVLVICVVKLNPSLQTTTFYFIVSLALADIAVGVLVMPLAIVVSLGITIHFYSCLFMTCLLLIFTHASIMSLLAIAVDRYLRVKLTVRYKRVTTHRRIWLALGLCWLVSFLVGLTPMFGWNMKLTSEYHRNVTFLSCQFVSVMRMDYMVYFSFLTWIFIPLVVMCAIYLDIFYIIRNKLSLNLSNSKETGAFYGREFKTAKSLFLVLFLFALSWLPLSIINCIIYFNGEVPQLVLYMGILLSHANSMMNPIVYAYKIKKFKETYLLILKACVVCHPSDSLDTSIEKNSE
Summary of the method: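 Racemates, plus selected enantiomers after chiral resolution, were tested at 25 °C, with a 60 min incubation for one subtype and 30 min for others. Non-specific binding was defined with 10 μM or 100 μM R-PIA. Bound radioactivity was counted after washing and filtration.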

A2BAR [2] = molecular target: T1, A2BAR; assay: Cellular impedance label-free assay (xCELLigence) in A2BAR-SNAP cells; format: cell-based; conditions: compound 1 μM, NECA 1 μM, 45 min, n = 4
From the text: To further evaluate the ability of 16b, 16j, 16r, and 16s to preclude A2BAR function in living cells, we took advantage of the cellular impedance label-free method, a widely accepted morphological and functional biosensor of cell status.[39] Accordingly, whole-cell NECA-mediated impedance responses of A2BAR^SNAP cells were monitored in real time in the absence or presence of 16b, 16j, 16r, and 16s.
Figure 4 Blockade of A2BAR-mediated whole-cell label-free responses. (A) Representative example of the impedance signal obtained over the time upon incubation with A2BAR ligands. […] (B) The area under the curve (AUC) derived from the normalized cell index (NCI) shown in (A) was calculated for each condition. Data are expressed as mean ± SEM (n = 4). ***P < 0.001 and **P < 0.01, one-way ANOVA with a Dunnett’s multiple-comparison test when compared to vehicle (Veh).
The xCELLigence RTCA system (Roche) was employed to assess the impact of blocking A2BAR-mediated effects in cellular impedance upon receptor activation, as previously described.[57]−[60] To this end, A2BAR^SNAP cells were growth in 16-well E-plates (Roche), using DMEM supplemented with 1 mM sodium pyruvate, 2 mM L-glutamine, 100 U/mL streptomycin, […] penicillin, and 1.5% (v/v) fetal bovine serum in the presence of 0.5 U/mL of ADA. Of note, wells were previously coated with 50 μL fibronectin (10 μg/mL; Sigma-Aldrich) and the background index for each well was determined with supplemented DMEM (90 μL) in the absence of cells. Subsequently, A2BAR^SNAP cells (90 μL) were plated at a cell density of 10,000 cells/well and grown for 18 h in the RTCA SP device station (Roche) at 37 °C in an atmosphere of 5% CO2. Then, before ligand addition, cell index values were normalized to the same time point using the RTCA software, providing the normalized cell index (NCI). After ligand stimulation, NCI was recorded every 15 s for a total time of at least 45 min. The area under the curve (AUC) for every condition was calculated using GraphPad Prism 9.

CC1=C(C(=O)OC(C)C)C(c2ccco2)n2c(nc3cc(Br)ccc32)N1 (stereo not drawn) [16r]
Kb (A2BAR [1]): 1.7 ± 0.6 nM
% at 1 μM hA3 (percentage displacement of specific binding) (hA3AR): 10%
Blockade of NECA-induced changes in cellular impedance (AUC of normalized cell index) (A2BAR [2]): significantly blocked

CC1=C(C(=O)OC(C)C)C(c2ccco2)n2c(nc3cc(F)ccc32)N1 (stereo not drawn) [16b]
Kb (A2BAR [1]): 0.8 ± 0.2 nM
% at 1 μM hA3 (percentage displacement of specific binding) (hA3AR): 3%
Blockade of NECA-induced changes in cellular impedance (AUC of normalized cell index) (A2BAR [2]): significantly blocked

CC1=C(C(=O)OC(C)C)C(c2ccco2)n2c(nc3cc(Cl)ccc32)N1 (stereo not drawn) [16j]
Kb (A2BAR [1]): 0.6 ± 0.2 nM
% at 1 μM hA3 (percentage displacement of specific binding) (hA3AR): 2%
Blockade of NECA-induced changes in cellular impedance (AUC of normalized cell index) (A2BAR [2]): significantly blocked
